Measured values from article PMC6776562, “Inhibition of Rac1-dependent forgetting alleviates memory deficits in animal models of Alzheimer’s disease” (Protein & Cell, 2019).
“Also recorded” adds a separate entry of the source.

Legend:
APP/PS1 mice = experiment: Morris water maze (MWM) spatial learning in AD mice; assay type: in vivo, mouse; details: APP/PS1 mice (eight-month-old); oral CS7171 50 mg/kg, CS7170 50 mg/kg, JKF-034 40 mg/kg once per day
Method: Mice were treated with EHop-016 (10 mg/kg), CS7170 (50 mg/kg), CS7171 (50 mg/kg), and JKF-034 (40 mg/kg). These drugs were dissolved in saline (0.9% NaCl) containing 0.5% Tween-80 (Sigma P4780). Each mouse received 200 μL of the solution by intragastric administration once per day (administered at 9:00 am). The drug administration was started seven days before the beginning of the Morris water maze (MWM) task and was continued until the end of the assay. All control groups were fed with vehicle solution.
The MWM test, a classic paradigm used to study spatial reference memory, was performed (Vorhees and Williams, [2006]). Briefly, a circular polypropylene water tank (120 cm in diameter) was filled with opaque water and milk (20 °C ± 1 °C) and a transparent platform (15 cm diameter) was submerged (2 cm below the water surface) in the center of one of the four virtually divided quadrants. Distal cues were fixed on the wall of the tank as spatial references. For the classic training paradigm (Figs. 2 and 6), mice were allowed to find the platform within 60 s and to remain on it for at least 5 s. For the modified training paradigm (Fig. 3A), mice were trained over 5 consecutive sessions with a 1-h intervals within one day. After training, mice were returned to their home cages and the memory of the location of the platform was tested at 6 h after training (Fig. 3C–D). A mouse behavior tracking software (ANY-maze software) was used to record data automatically.

[1] = In vitro metabolic stability in liver microsomes (species not separated); assay type: in vitro ADME, human, monkey, and mouse; details: all species of Table 4
Method: Measurements of metabolic stability can be performed with liver microsomes, which are known to contain the major drug-metabolizing enzymes and UDP-glucuronosyltransferase (Baranczewski et al., [2006]). The in vitro metabolic stability levels of CS7171 and JKF-034 were measured using human, monkey, and mouse liver microsomes. The metabolic half-time (T1/2) and intrinsic clearance (Clint) were assayed using LC-MS analysis. Ketanserin is a potent, orally effective antagonist of endogenous serotonin. Its pharmacological profile is well studied (Brogden and Sorkin, [1990]). In this study, we used ketanserin as a control. If the T1/2 of the tested compound was 30–120 min, the compound was considered to show moderate metabolism in liver microsomes. If the T1/2 value was less than 30 min, the compound was considered to be susceptible to metabolism in liver microsomes.

RhoA = RhoA activity (RhoA-GTP) by Western blot after drug administration; assay type: in vivo; details: 7-month-old APP/PS1 mice; two weeks of P.O administration
Method: (§1) The hippocampal tissues from human subjects and mice were harvested and stored in a liquid nitrogen tank for biochemical assay. The tissues were homogenized in cold lysis buffer (Merck-Millipore, 20-168). The insoluble debris were removed after centrifugation at 13,000 rpm (for 10 min, at 4 °C). For GTP-bound Rac/Cdc42, lysates were incubated with GST-tagged PAK (p21-activated kinase)-PBD agarose beads (Cytoskeleton, PAK02) overnight at 4 °C. On the second day, the beads were washed three times with lysis buffer before subjecting them to SDS-PAGE (15%) and transferring them onto nitrocellulose membranes (Millipore, HATF00010). The membranes were incubated with primary antibodies (for Rac1: BD Transduction Laboratories, #610650, 1:2,000 dilution; for Cdc42, Santa Cruz Biotechnology, lot No. sc-8401, 1:500 dilution) overnight at 4 °C and with HRP-conjugated goat anti-mouse IgG (Cell Signaling Technology, #7076) for 1 h at room temperature. Intensities of the detected bands were analyzed using ImageJ software (National Institutes of Health). The total amount of Rac1 in the lysate was detected using a routine Western blot procedure. RhoA-GTP levels were measured by using the Rho-GTP monoclonal antibody (New East, lot No. 26904, Dilution: 1:1,000). […] Data information: All values are expressed as mean r SEM.

Cdc42 = Cdc42 activity (Cdc42-GTP) by Western blot after drug administration; assay type: in vivo; details: 7-month-old APP/PS1 mice; two weeks of P.O administration
Method: as §1

SMILES	MWM learning deficit / spatial memory (APP/PS1 mice)	T1/2 in liver microsomes [1]	RhoA activity (RhoA)	Cdc42 activity (Cdc42)
O=C1NN(c2ccc(Cl)c(Cl)c2)C(=O)C1=Cc1ccc(O)c(N(O)O)c1 [CS7171]	mitigated learning deficits; also recorded: rescued; also recorded: effective	less than 30 min	did not affect	did not affect
O=S(=O)(c1ccccc1)N1CCN(Cc2ccccc2)CC1 [JKF-034]	effective; also recorded: rescued	less than 30 min	did not affect	did not affect
